This test concerns the target T1, NL20 human bronchial epithelial cells expressing human Z-AAT (Homo sapiens, UniProt P01009, E366K).
T1 construct: expressed in transfected cells; host or cells: NL20 human bronchial epithelial cells (NL20-SI line, doxycycline added)
As to the kind of experiment: AAT Function Assay (MSD Assay NL20-SI Cell Line). Conditions: functionally active AAT (AAT-hNE complex) in supernatant of NL20 cells expressing human Z-AAT; read-out: NL20 Func. (EC50). In kind it is cell-based. Put shortly:
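NL20 cells expressing Z-AAT, seeded 16,000 cells/well, received compound with doxycycline (0.1 μM final) and were incubated overnight at 37° C. Supernatants, diluted 45-fold in total, reacted with excess human neutrophil elastase; AAT-elastase complex captured on anti-AAT plates, detected with Sulfo-tagged anti-elastase by MSD electrochemiluminescence, and quantified against M-AAT standards (0.156-320 ng/mL).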
T1 sequence (P01009 25-418 E366K): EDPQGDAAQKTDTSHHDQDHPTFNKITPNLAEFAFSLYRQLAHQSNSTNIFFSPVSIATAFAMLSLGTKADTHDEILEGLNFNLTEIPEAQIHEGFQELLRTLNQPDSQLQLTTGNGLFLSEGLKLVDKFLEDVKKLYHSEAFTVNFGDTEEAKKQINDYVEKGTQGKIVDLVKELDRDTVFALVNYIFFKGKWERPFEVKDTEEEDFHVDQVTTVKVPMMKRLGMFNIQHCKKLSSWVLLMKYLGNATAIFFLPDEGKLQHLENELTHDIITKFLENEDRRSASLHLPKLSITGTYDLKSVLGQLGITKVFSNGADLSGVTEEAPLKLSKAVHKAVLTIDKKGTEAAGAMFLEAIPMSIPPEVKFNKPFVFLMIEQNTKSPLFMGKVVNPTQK
Consider `Cc1cc(-n2c(C(C)C)c(CCC(=O)O)c3c(F)c4[nH]ncc4cc32)ccc1F` [Compound 52, 3-[8-fluoro-5-(4-fluoro-3-methyl-phenyl)-6-isopropyl-1H-pyrrolo[2,3-f]indazol-7-yl]propanoic Acid], for which the EC50 was under 1.16 µM. Take `O=C(O)C1CC2(C1)CC(c1c(C3CCOC3)n(-c3ccc(F)cc3)c3cc4cn[nH]c4cc13)C2` (single isomer, unassigned) [Compound 141, 6-[5-(4-fluorophenyl)-6-tetrahydrofuran-3-yl-1H-pyrrolo[2,3-f]indazol-7-yl]spiro[3.3]heptane-2-carboxylic acid]: the EC50 was over 3 µM.

As for `Cc1cc(-n2c(C(C)C)c(C(=O)N3CCN(C)CC3)c3cc4[nH]ncc4cc32)ccc1F` [Compound 5, [5-(4-fluoro-3-methyl-phenyl)-6-isopropyl-1H-pyrrolo[2,3-f]indazol-7-yl]-(4-methylpiperazin-1-yl)methanone], the EC50 is over 3 µM. For the compound `O=C(O)C1CC2(C1)CC(c1c(C3CCOCC3)n(-c3ccc(F)c(Cl)c3)c3cc4cn[nH]c4cc13)C2` (single isomer, unassigned) [Compound 77], the EC50 was under 1.16 µM.

Turning to `CC1(C(=O)O)CC(c2c(C3CCOCC3)n(-c3ccc(F)c(F)c3)c3cc4cn[nH]c4cc23)C1` (single isomer, unassigned) [Compound 69], the EC50 is over 3 µM. The value for `O=C(O)C1CC2(C1)CC(c1c(C3CCOCC3)n(-c3ccc(F)c(Cl)c3)c3cc4cn[nH]c4cc13)C2` (racemic) [Compound 76] was under 1.16 µM. For the compound `Cc1cc(-n2c(C3CCOCC3)c(C[C@H]3C[C@@H](C(=O)O)C3)c3cc4[nH]ncc4cc32)ccc1F` (single isomer, unassigned) [Compound 97], the EC50 was under 1.16 µM. In the case of `Cc1cc(-n2c(C(C)C)cc3c(C)c4[nH]ncc4cc32)ccc1F` [Compound 49, 5-(4-fluoro-3-methyl-phenyl)-6-isopropyl-8-methyl-1H-pyrrolo[2,3-f]indazole], the EC50 is over 3 µM. Consider `Cc1cc(F)ccc1-n1c(C2CCOCC2)c(CC2(C(=O)O)CC2)c2cc3[nH]ncc3cc21` [Compound 124, 1-[[5-(4-fluoro-2-methyl-phenyl)-6-tetrahydropyran-4-yl-1H-pyrrolo[2,3-f]indazol-7-yl]methyl]cyclopropanecarboxylic Acid], for which the EC50 fell in the range of 1.16 to 3 µM. In the case of `Cc1cc(-n2c(C(C)C)c([C@H]3C[C@@H](CC(=O)O)C3)c3cc4[nH]ncc4cc32)ccc1F` [Compound 23], the EC50 is under 1.16 µM. As for `CC(C)c1c(CCC(=O)O)c2cc3[nH]ncc3cc2n1-c1cccc(C(F)F)c1` [Compound 37, 3-[5-[3-(difluoromethyl)phenyl]-6-isopropyl-1H-pyrrolo[2,3-f]indazol-7-yl]propanoic Acid], the EC50 is over 3 µM.

Consider `Fc1ccc(-n2c(C3CCOCC3)c(CCCn3cncn3)c3cc4[nH]ncc4cc32)cc1` [Compound 164], for which the EC50 is over 3 µM. In the case of `O=S1(=O)CCC(Cc2c(C3CCOCC3)n(-c3ccc(F)cc3)c3cc4cn[nH]c4cc23)CC1` [Compound 147], the EC50 was in the range of 1.16 to 3 µM.

On to `O=C(O)[C@H]1CC[C@H](c2c(C3CCOCC3)n(-c3ccc(F)cc3)c3cc4cn[nH]c4cc32)CC1` [Compound 120], for which the EC50 is under 1.16 µM. The value for `Cc1cc(-n2c(C(C)C)c(CC(C)C(=O)O)c3cc4[nH]ncc4cc32)ccc1F` (single isomer, unassigned) [Compound 20] was under 1.16 µM; that for `CC(C)c1c(CCC(=O)O)c2cc3[nH]ncc3cc2n1-c1ccccc1` [Compound 41, 3-(6-isopropyl-5-phenyl-1H-pyrrolo[2,3-f]indazol-7-yl)propanoic Acid] was 1.16 to 3 µM.

Take `Cc1cc(-n2c(C(C)C)c(CCC(=O)O)c3cc4[nH]ncc4cc32)ccc1F` [Compound 16, 3-[5-(4-fluoro-3-methyl-phenyl)-6-isopropyl-1H-pyrrolo[2,3-f]indazol-7-yl]propanoic acid]: the EC50 was 1.16 to 3 µM. For `Cc1cc(-n2c(C(C)C)c(CCC(=O)O)c3cc4c(cnn4C)cc32)ccc1F` [Compound 195, 3-[5-(4-fluoro-3-methyl-phenyl)-6-isopropyl-1-methyl-pyrrolo[2,3-f]indazol-7-yl]propanoic Acid], the EC50 was over 3 µM. For the compound `C[C@@H](O)C(=O)N1CC2(CC(c3c(C4CCOCC4)n(-c4ccc(F)c(F)c4)c4cc5cn[nH]c5cc34)C2)C1` [Compound 185, (2R)-1-[6-[5-(3,4-difluorophenyl)-6-tetrahydropyran-4-yl-1H-pyrrolo[2,3-f]indazol-7-yl]-2-azaspiro[3.3]heptan-2-yl]-2-hydroxy-propan-1-one], the EC50 was in the range of 1.16 to 3 µM.

Take `Cc1cc(-n2c(C3CCOCC3)c(CCC(=O)O)c3cc4[nH]ncc4cc32)ccc1F` [Compound 86]: the EC50 was over 3 µM. The value for `COC(=O)C1CC2(C1)CC(c1c(C3CCOCC3)n(-c3ccc(F)c(C)c3)c3cc4cn[nH]c4cc13)C2` (racemic) [Compound 89] was over 3 µM; that for `Cc1cc(-n2c(C(C)C)c(CCC(=O)O)c3cc4[nH]nc(C)c4cc32)ccc1F` [Compound 54, 3-[5-(4-fluoro-3-methyl-phenyl)-6-isopropyl-3-methyl-1H-pyrrolo[2,3-f]indazol-7-yl]propanoic Acid] was over 3 µM; that for `Cc1cc(-n2c(C3CCOCC3)c(C3CC4(CC(C(=O)O)C4)C3)c3cc4[nH]nc(C)c4cc32)ccc1F` (single isomer, unassigned) [Compound 128, 6-[5-(4-fluoro-3-methyl-phenyl)-3-methyl-6-tetrahydropyran-4-yl-1H-pyrrolo[2,3-f]indazol-7-yl]spiro[3.3]heptane-2-carboxylic acid] was 1.16 to 3 µM. `O=C(O)C1CC2(C1)CC(c1c(C3CCOCC3)n(-c3ccccc3)c3cc4cn[nH]c4cc13)C2` (stereo not shown) [Compound 123, 6-(5-phenyl-6-tetrahydropyran-4-yl-1H-pyrrolo[2,3-f]indazol-7-yl)spiro[3.3]heptane-2-carboxylic Acid]: the EC50 was 1.16 to 3 µM. In the case of `Cc1cc(-n2c(C3CCOCC3)c(CC3CC3C(=O)O)c3cc4[nH]ncc4cc32)ccc1F` (single isomer, unassigned) [Compound 102] it was over 3 µM. As to `Cc1cc(-n2c(C(C)C)c(C3CC4(CC(C(=O)O)C4)C3)c3cc4[nH]ncc4cc32)ccc1F` (single isomer, unassigned) [Compound 26], the EC50 is under 1.16 µM. For the compound `CC(C)c1c(S(C)(=O)=O)c2cc3[nH]ncc3cc2n1-c1ccc(F)cc1` [Compound 30, 5-(4-fluorophenyl)-6-isopropyl-7-methylsulfonyl-1H-pyrrolo[2,3-f]indazole], the EC50 was over 3 µM. Turning to `Cc1cc(-n2c(C3CCOCC3)c([C@H]3C[C@@H](C(=O)O)C3)c3cc4[nH]ncc4cc32)ccc1F` [Compound 99], the EC50 is over 3 µM. Regarding `O=C(O)C1CC2(C1)CC(c1c(C3CCOCC3)n(-c3ccc(F)c(F)c3)c3cc4c(Cl)n[nH]c4cc13)C2` (stereo not shown) [Compound 130, 6-[3-chloro-5-(3,4-difluorophenyl)-6-tetrahydropyran-4-yl-1H-pyrrolo[2,3-f]indazol-7-yl]spiro[3.3]heptane-2-carboxylic Acid], the EC50 is under 1.16 µM.

On to `O=C(O)[C@H]1C[C@H](Cc2c(C3CCOCC3)n(-c3ccc(F)c(F)c3)c3cc4cn[nH]c4cc23)C1` (single isomer, unassigned) [Compound 71], for which the EC50 is over 3 µM. The value for `Cc1cc(-n2c(C3CCOCC3)c(C[C@H]3C[C@H](C(=O)O)C3)c3cc4[nH]ncc4cc32)ccc1F` (single isomer, unassigned) [Compound 98] was 1.16 to 3 µM; that for `Cc1cc(-n2c(C(C)C)c(C3CC4(CC(C(=O)O)C4)C3)c3cc4[nH]ncc4cc32)ccc1F` (single isomer, unassigned) [Compound 25] was under 1.16 µM; that for `CC(C)(CC#N)c1c(CCC(=O)O)c2cc3[nH]ncc3cc2n1-c1ccc(F)cc1` [Compound 190, 3-[6-(2-cyano-1,1-dimethyl-ethyl)-5-(4-fluorophenyl)-1H-pyrrolo[2,3-f]indazol-7-yl]propanoic Acid] was over 3 µM. For `Cc1cc(-n2c(C(C)C)c(C(=O)O)c3cc4[nH]ncc4cc32)ccc1F` [Compound 3, 5-(4-fluoro-3-methyl-phenyl)-6-isopropyl-1H-pyrrolo[2,3-f]indazole-7-carboxylic Acid], the EC50 was in the range of 1.16 to 3 µM. Take `O=C1CCCC(c2c(C3CCOCC3)n(-c3ccc(F)cc3)c3cc4cn[nH]c4cc23)C1` (racemic) [Compound 121, 3-[5-(4-fluorophenyl)-6-tetrahydropyran-4-yl-1H-pyrrolo[2,3-f]indazol-7-yl]cyclohexanone]: the 50% effective concentration (EC50) lay within 1.16 to 3 µM.

With `N#CCCc1c(C2CCOCC2)n(-c2ccc(F)cc2)c2cc3cn[nH]c3cc12` [Compound 146], the EC50 was 1.16 to 3 µM. In the case of `C=C(C)c1c(C23CC(C(=O)OC)(C2)C3)c2cc3[nH]ncc3cc2n1-c1ccc(F)cc1` [Compound 207, methyl 3-[5-(4-fluorophenyl)-6-isopropenyl-1H-pyrrolo[2,3-f]indazol-7-yl]bicyclo[1.1.1]pentane-1-carboxylate], the EC50 is over 3 µM. For the compound `Cc1cc(-n2c(C3CCOCC3)c([C@H]3C[C@H](CC(=O)O)C3)c3cc4[nH]ncc4cc32)ccc1F` (single isomer, unassigned) [Compound 94], the EC50 was in the range of 1.16 to 3 µM. In the case of `Cc1cc(-n2c(C3CCOCC3)c(CCC(=O)O)c3cc4[nH]nc(C)c4cc32)ccc1F` [Compound 125, 3-[5-(4-fluoro-3-methyl-phenyl)-3-methyl-6-tetrahydropyran-4-yl-1H-pyrrolo[2,3-f]indazol-7-yl]propanoic Acid], the EC50 was over 3 µM. In the case of `Cc1cc(-n2c(C3CCOCC3)c([C@H]3C[C@](C)(C(=O)O)C3)c3cc4[nH]ncc4cc32)ccc1F` (single isomer, unassigned) [Compound 104], the EC50 was under 1.16 µM.

Values taken from patent US11623924B2, “Modulators of alpha-1 antitrypsin” (Vertex Pharmaceuticals Incorporated, priority 2018, dated 2023).
